Source: US20250073255A1, “USE OF FA-TYPE LIPID COMPOUNDS IN PREPARATION OF NUCLEIC ACID DELIVERY REAGENT AND RELATED PRODUCT” (BEIJING BAISHIKANG PHARMACEUTICAL TECHNOLOGY (BSJPHARMA) …, priority 2021, published 2025)

Test system: C57BL/6 male mice
Experiment: In vivo delivery study of lipid nucleic acid mixture (oral gavage, RT-qPCR of PGY-sRNA-26 in tissues)
Set-up: species or system mouse
Conditions: for oral delivery of single-stranded sRNA nucleic acids into mouse blood / oral delivery of single-stranded sRNA nucleic acids into mouse brain tissue / oral delivery of single-stranded sRNA nucleic acids into mouse femur / oral delivery of single-stranded sRNA nucleic acids into mouse heart tissue / oral delivery of single-stranded sRNA nucleic acids into mouse intestinal tissue / oral delivery of single-stranded sRNA nucleic acids into mouse kidney tissue / oral delivery of single-stranded sRNA nucleic acids into mouse liver tissue / oral delivery of single-stranded sRNA nucleic acids into mouse lung tissue / oral delivery of single-stranded sRNA nucleic acids into mouse pancreatic tissue / oral delivery of single-stranded sRNA nucleic acids into mouse spleen tissue / oral delivery of single-stranded sRNA nucleic acids into mouse stomach tissue: 100 μg lipid:10 nmol PGY-sRNA-26, sampled after 12 hours; for oral delivery of single-stranded sRNA nucleic acids into mouse heart tissue: vs free uptake group; for oral delivery of single-stranded sRNA nucleic acids into mouse intestinal tissue: intestine; for oral delivery of single-stranded sRNA nucleic acids into mouse pancreatic tissue: pancreas; for overall delivery efficacy: delivering nucleic acids into each tissue and blood tested: 100 μg lipid:10 nmol PGY-sRNA-26, all tissues and blood tested
Outline: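 Stem-loop RT and SYBR qPCR, normalized to U6, measured PGY-sRNA-26 in blood and organs 12 h after gavage. Dosing was 10 nmol sRNA with 100 μg lipid, pre-mixed and heated 15 min at 90 °C, in 12-h-fasted mice, against saline and free-sRNA groups.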

Row | Structure (SMILES) | oral delivery of single-stranded sRNA nucleic acids into mouse blood | oral delivery of single-stranded sRNA nucleic acids into mouse brain tissue | oral delivery of single-stranded sRNA nucleic acids into mouse femur | oral delivery of single-stranded sRNA nucleic acids into mouse heart tissue | oral delivery of single-stranded sRNA nucleic acids into mouse intestinal tissue | oral delivery of single-stranded sRNA nucleic acids into mouse kidney tissue | oral delivery of single-stranded sRNA nucleic acids into mouse liver tissue | oral delivery of single-stranded sRNA nucleic acids into mouse lung tissue | oral delivery of single-stranded sRNA nucleic acids into mouse pancreatic tissue | oral delivery of single-stranded sRNA nucleic acids into mouse spleen tissue | oral delivery of single-stranded sRNA nucleic acids into mouse stomach tissue | overall delivery efficacy: delivering nucleic acids into each tissue and blood tested
1 | CCCCCC/C=C\CCCCCCCC(=O)OCCCCCCCCCCCCCCCCCCCCCCCC [Lipid 819, tetracosyl (Z)-hexadec-9-enoate] | can effectively orally deliver | can effectively orally deliver | can effectively orally deliver | can effectively orally deliver | can effectively orally deliver | can effectively orally deliver | can effectively orally deliver | can effectively orally deliver | can effectively orally deliver | can effectively orally deliver | can effectively orally deliver | –
2 | CC/C=C/CC1C(=O)CCC1CC(=O)OC (stereo not shown) [Lipid 501] | can effectively orally deliver | can effectively orally deliver | – | can effectively orally deliver | can effectively orally deliver | can effectively orally deliver | can effectively orally deliver | can effectively orally deliver | – | can effectively orally deliver | can effectively orally deliver | best delivery efficacy
3 | O=C(O)CC(=O)C(=O)O [Lipid 623, 2-oxobutanedioic acid] | can effectively orally deliver | can effectively orally deliver | can effectively orally deliver | can effectively orally deliver | can effectively orally deliver | can effectively orally deliver | can effectively orally deliver | – | – | can effectively orally deliver | can effectively orally deliver | –
4 | CCCCCCCCCCCC(=O)OC/C=C(\C)CC/C=C(\C)CCC=C(C)C [Lipid 802, [(2E,6E)-3,7,11-trimethyldodeca-2,6,10-trienyl]dodecanoate] | can effectively orally deliver | can effectively orally deliver | can effectively orally deliver | can effectively orally deliver | can effectively orally deliver | can effectively orally deliver | can effectively orally deliver | can effectively orally deliver | can effectively orally deliver | can effectively orally deliver | can effectively orally deliver | best delivery efficacy
5 | CC/C=C/C=C/C=O [Lipid 618, (2E,4E)-hepta-2,4-dienal] | – | can effectively orally deliver | can effectively orally deliver | – | can effectively orally deliver | – | can effectively orally deliver | can effectively orally deliver | – | – | – | –
6 | CCCCCC/C=C\CCCCCCCC(=O)OCCCCCCCCCCCCCCCCCCCCC [Lipid 820, henicosyl (Z)-hexadec-9-enoate] | can effectively orally deliver | can effectively orally deliver | can effectively orally deliver | can effectively orally deliver | can effectively orally deliver | can effectively orally deliver | can effectively orally deliver | can effectively orally deliver | can effectively orally deliver | can effectively orally deliver | can effectively orally deliver | –
7 | CCCCC/C=C\C/C=C\C/C=C\C/C=C\CCCC(=O)Nc1ccc(S(N)(=O)=O)cc1 [Lipid 826, (5Z,8Z,11Z,14Z)-N-(4-sulfamoylphenyl)icosa-5,8,11,14-tetraenamide] | can effectively orally deliver | can effectively orally deliver | can effectively orally deliver | can effectively orally deliver | can effectively orally deliver | can effectively orally deliver | can effectively orally deliver | can effectively orally deliver | can effectively orally deliver | can effectively orally deliver | can effectively orally deliver | –
8 | CCCCC/C=C\C/C=C\CCCCCCCC(=O)OCCCCCCCCCCCCCC [Lipid 811, tetradecyl (9Z,12Z)-octadeca-9,12-dienoate] | can effectively orally deliver | can effectively orally deliver | can effectively orally deliver | can effectively orally deliver | can effectively orally deliver | can effectively orally deliver | can effectively orally deliver | can effectively orally deliver | can effectively orally deliver | can effectively orally deliver | can effectively orally deliver | –
9 | C=CC(=O)CCCCC [Lipid 619, oct-1-en-3-one] | can effectively orally deliver | can effectively orally deliver | can effectively orally deliver | – | can effectively orally deliver | can effectively orally deliver | can effectively orally deliver | – | – | can effectively orally deliver | can effectively orally deliver | –
10 | CCCCCC(=O)OCCCC [Lipid 613, butyl hexanoate] | can effectively orally deliver | can effectively orally deliver | can effectively orally deliver | can effectively orally deliver | can effectively orally deliver | can effectively orally deliver | can effectively orally deliver | can effectively orally deliver | – | can effectively orally deliver | can effectively orally deliver | best delivery efficacy
11 | CCCCCCCCCCCCCCCCCCCCCCC(=O)NCCO [Lipid 519, N-(2-hydroxyethyl)tricosanamide] | – | – | – | can effectively orally deliver | – | can effectively orally deliver | – | can effectively orally deliver | – | – | can effectively orally deliver | –
